Source: patent US8426202B2, “Cell culture medium” (Cellca GmbH, priority 2005, dated 2013)
“And” between values parts separate entries of the source, which are not always exact repeats. Equal entries are not always repeated.

Tests used:
[1] = system: CHO cell line that expresses an antibody; assay: Batch experiment with the substances according to the invention (Example 1); assay type: cell-based, Chinese hamster; settings: batch mode, substance 0.5-1 g/l, basal medium glucose 4.7 g/l, glutamine […]
Description: Cells were stored in the gas phase of liquid nitrogen. One to two ampoules were thawed in nutrient medium preheated to 37° C. and transferred to spinner bottles, shaking flasks or T-bottles. In the first few days of cultivation the medium was changed, depending on the clone.
Depending on the clone, cells were split either every second day or every third day or after two and three days alternately into new medium, i.e. a portion of the cell suspension was removed from culture and a smaller portion of the cell suspension was reused as inoculum for the next culture. This inoculum was made up with fresh prewarmed nutrient medium. Cells were incubated at 37° C. in an incubator with a CO2 atmosphere. An alternative for incubating cells was cultivation in an incubation chamber at 37° C., in this way cells were held in culture for several passages. A passage means a cultivation time of two to three days. At various points of time, cell suspension was taken from strain maintenance and used as inoculum for experiments. The experiments were carried out in various cultivation systems, for example in spinner bottles, T-bottles, shaking flasks, culture tubes or in controlled bioreactors.
(§1) Feed took place at regular intervals.

[2] = system: CHO cell line that expresses an antibody; assay: Fed-batch experiment with the substances according to the invention (Example 2, Table 2); assay type: cell-based, Chinese hamster; design: Viabil.: concentration or dose not given beside the values
Source text: as §1

## NC(=O)NCCC[C@H](N)C(=O)O [Citrulline]
[1]; day 0
  Gln: 1.53 mM
  Glucose: 4.69 g/L
  Lactate: 0 g/L
  NH4: 1.22 mM
  Specific Glutamin consumption (Gln/VCD): 1.49
  Specific ammonia production (NH4/VCD): 1.18
  Specific glucose consumption (Gluc/VCD): 4.55
  Specific lactate production (Lac/VCD): 0.00
  Total Cell Density TCD: 1.07 E5/ml
  Viabil.: 96%
  Viable Cell Density (VCD): 1.03 E5/ml
[1]; day 3
  Gln: 0.82 mM
  Glucose: 4.14 g/L
  Lactate: 0.83 g/L
  NH4: 1.87 mM
  Specific Glutamin consumption (Gln/VCD): 0.11
  Specific ammonia production (NH4/VCD): 0.25
  Specific glucose consumption (Gluc/VCD): 0.55
  Specific lactate production (Lac/VCD): 0.11
  Total Cell Density TCD: 7.7 E5/ml
  Viabil.: 97%
  Viable Cell Density (VCD): 7.5 E5/ml
[1]; day 6
  Gln: 0.27 mM
  Glucose: 2.62 g/L
  Lactate: 1.16 g/L
  NH4: 2.66 mM
  Specific Glutamin consumption (Gln/VCD): 0.01
  Specific ammonia production (NH4/VCD): 0.07
  Specific glucose consumption (Gluc/VCD): 0.07
  Specific lactate production (Lac/VCD): 0.03
  Total Cell Density TCD: 39.6 E5/ml
  Viabil.: 96%
  Viable Cell Density (VCD): 37.9 E5/ml
[1]; day 8
  Gln: 0.37 mM
  Glucose: 1.7 g/L
  Lactate: 1.12 g/L
  NH4: 2.86 mM
  Specific Glutamin consumption (Gln/VCD): 0.03
  Specific ammonia production (NH4/VCD): 0.20
  Specific glucose consumption (Gluc/VCD): 0.12
  Specific lactate production (Lac/VCD): 0.08
  Total Cell Density TCD: 17.8 E5/ml
  Viabil.: 82%
  Viable Cell Density (VCD): 14.6 E5/ml
[1]; day 11
  Gln: 0.51 mM
  Glucose: 0.7 g/L
  Lactate: 1.48 g/L
  NH4: 3.26 mM
  Specific Glutamin consumption (Gln/VCD): 0.06
  Specific ammonia production (NH4/VCD): 0.40
  Specific glucose consumption (Gluc/VCD): 0.09
  Specific lactate production (Lac/VCD): 0.18
  Total Cell Density TCD: 21.3 E5/ml
  Viabil.: 38%
  Viable Cell Density (VCD): 8.2 E5/ml

## O=C(O)CC(O)C(=O)O (centres unmarked) [Malic acid]
[1]; day 0
  Gln: 1.53 mM
  Glucose: 4.69 g/L
  Lactate: 0 g/L
  NH4: 1.22 mM
  Specific Glutamin consumption (Gln/VCD): 1.49
  Specific ammonia production (NH4/VCD): 1.18
  Specific glucose consumption (Gluc/VCD): 4.55
  Specific lactate production (Lac/VCD): 0.00
  Total Cell Density TCD: 1.07 E5/ml
  Viabil.: 96%
  Viable Cell Density (VCD): 1.03 E5/ml
[1]; day 3
  Gln: 0.67 mM
  Glucose: 3.9 g/L
  Lactate: 0.85 g/L
  NH4: 1.9 mM
  Specific Glutamin consumption (Gln/VCD): 0.09
  Specific ammonia production (NH4/VCD): 0.25
  Specific glucose consumption (Gluc/VCD): 0.51
  Specific lactate production (Lac/VCD): 0.11
  Total Cell Density TCD: 7.8 E5/ml
  Viabil.: 97%
  Viable Cell Density (VCD): 7.6 E5/ml
[1]; day 6
  Gln: 0.28 mM
  Glucose: 2.65 g/L
  Lactate: 1.14 g/L
  NH4: 2.42 mM
  Specific Glutamin consumption (Gln/VCD): 0.01
  Specific ammonia production (NH4/VCD): 0.06
  Specific glucose consumption (Gluc/VCD): 0.06
  Specific lactate production (Lac/VCD): 0.03
  Total Cell Density TCD: 43.4 E5/ml
  Viabil.: 97%
  Viable Cell Density (VCD): 42.2 E5/ml
[1]; day 8
  Gln: 0.37 mM
  Glucose: 1.76 g/L
  Lactate: 0.94 g/L
  NH4: 2.4 mM
  Specific Glutamin consumption (Gln/VCD): 0.02
  Specific ammonia production (NH4/VCD): 0.10
  Specific glucose consumption (Gluc/VCD): 0.08
  Specific lactate production (Lac/VCD): 0.04
  Total Cell Density TCD: 26.1 E5/ml
  Viabil.: 89%
  Viable Cell Density (VCD): 23.2 E5/ml
[1]; day 11
  Gln: 0.44 mM
  Glucose: 0.47 g/L
  Lactate: 1.2 g/L
  NH4: 2.75 mM
  Specific Glutamin consumption (Gln/VCD): 0.03
  Specific ammonia production (NH4/VCD): 0.16
  Specific glucose consumption (Gluc/VCD): 0.03
  Specific lactate production (Lac/VCD): 0.07
  Total Cell Density TCD: 28.5 E5/ml
  Viabil.: 61%
  Viable Cell Density (VCD): 17.5 E5/ml
[2]; day 0, fed-batch
  Total Cell Density TCD: 1.5 E5/ml
  Viabil.: 91%
  Viable Cell Density (VCD): 1.37 E5/ml
[2]; day 2, fed-batch
  Total Cell Density TCD: 3.9 E5/ml and 4.2 E5/ml
  Viabil.: 97% and 98%
  Viable Cell Density (VCD): 3.8 E5/ml and 4.1 E5/ml
[2]; day 5, fed-batch
  Total Cell Density TCD: 14.1 E5/ml and 12.8 E5/ml
  Viabil.: 97% and 98%
  Viable Cell Density (VCD): 13.7 E5/ml and 12.5 E5/ml
[2]; day 8, fed-batch
  Total Cell Density TCD: 49.1 E5/ml and 45.3 E5/ml
  Viabil.: 91% and 92%
  Viable Cell Density (VCD): 44.9 E5/ml and 41.6 E5/ml
